Assay [1] relates to Candida albicans. Briefly: Antimicrobial activity against Candida albicans ATCC 90028 assessed as growth inhibition at 64 ug/mL by NCCLS broth microdilution assay. Format: functional, organism-based.
In assay [2] the test system is BXPC-3. The assay can be described thus: Growth inhibition of human BxPC3 cells after 48 hrs by SRB assay. Format: functional. Conditions: BXPC-3, 48 h.
For assay [3], the system named is Streptococcus pneumoniae. Briefly: Antimicrobial activity against Streptococcus pneumoniae ATCC 6303 by NCCLS broth microdilution assay. In kind it is functional. On the technique in general: In broth dilution the organism is exposed to a series of concentrations in liquid medium.
In assay [4] the test system is Staphylococcus aureus. Briefly: Antimicrobial activity against Staphylococcus aureus ATCC 29213 by NCCLS broth microdilution assay. In kind it is functional.
Assay [5] concerns Stenotrophomonas maltophilia. The assay can be described thus: Antimicrobial activity against Stenotrophomonas maltophilia ATCC 13637 assessed as growth inhibition at 64 ug/mL by NCCLS broth microdilution assay. In kind it is functional, organism-based.
The test system of assay [6] is SF-268. Briefly: Growth inhibition of human SF268 cells after 48 hrs by SRB assay. In kind it is functional. Conditions: SF-268, 48 h.
Assay [7] has as its system P388. Briefly: Growth inhibition of mouse P388 cells after 48 hrs by Z1 Coulter particle counting. Format: functional. As to conditions: P388, 48 h, read-out: ED50 (the source's name).
Assay [8] has as its system DU-145. Briefly: Growth inhibition of human DU145 cells after 48 hrs by SRB assay. Format: functional. Conditions: DU-145, 48 h.
The test system of assay [9] is Escherichia coli. The assay can be described thus: Antimicrobial activity against Escherichia coli ATCC 25922 assessed as growth inhibition at 64 ug/mL by NCCLS broth microdilution assay. In kind it is functional, organism-based.
In assay [10] the test system is Cryptococcus neoformans. Briefly: Antimicrobial activity against Cryptococcus neoformans ATCC 90112 assessed as growth inhibition at 64 ug/mL by NCCLS broth microdilution assay. In kind it is functional, organism-based.
Assay [11] has as its system Enterococcus faecalis. The assay can be described thus: Antimicrobial activity against Enterococcus faecalis ATCC 29212 by NCCLS broth microdilution assay. In kind it is functional.
Assay [12] relates to KM-20L2. The assay can be described thus: Growth inhibition of human KM20L2 cells after 48 hrs by SRB assay. Format: functional. As to conditions: KM-20L2, 48 h. Background: In SRB staining, fixed cells bind dye roughly in proportion to their protein.
The subject of assay [13] is MCF7. Briefly: Growth inhibition of human MCF7 cells after 48 hrs by SRB assay. Format: functional. Conditions: MCF7, 48 h.
Assay [14] concerns Micrococcus luteus. Briefly: Antimicrobial activity against Micrococcus luteus Presque Isle 456 by NCCLS broth microdilution assay. In kind it is functional.
Assay [15] has as its system NCI-H460. The assay can be described thus: Growth inhibition of human NCI-H460 cells after 48 hrs by SRB assay. In kind it is functional. Conditions: NCI-H460, 48 h.
The subject of assay [16] is Enterobacter cloacae. The assay can be described thus: Antimicrobial activity against Enterobacter cloacae ATCC 13047 assessed as growth inhibition at 64 ug/mL by NCCLS broth microdilution assay. In kind it is functional, organism-based.
Assay [17] concerns Neisseria gonorrhoeae. The assay can be described thus: Antimicrobial activity against Neisseria gonorrhoeae ATCC 49226 by NCCLS broth microdilution assay. Format: functional.
The test system of assay [18] is Cryptococcus neoformans. Briefly: Antimicrobial activity against Cryptococcus neoformans ATCC 90112 by NCCLS broth microdilution assay. Format: functional.
Assay [19] deals with Escherichia coli. Briefly: Antimicrobial activity against Escherichia coli ATCC 25922 by NCCLS broth microdilution assay. In kind it is functional.
Assay [20] concerns Stenotrophomonas maltophilia. The assay can be described thus: Antimicrobial activity against Stenotrophomonas maltophilia ATCC 13637 by NCCLS broth microdilution assay. In kind it is functional.
In assay [21] the test system is Candida albicans. The assay can be described thus: Antimicrobial activity against Candida albicans ATCC 90028 by NCCLS broth microdilution assay. In kind it is functional.
In assay [22] the test system is Enterobacter cloacae. Briefly: Antimicrobial activity against Enterobacter cloacae ATCC 13047 by NCCLS broth microdilution assay. In kind it is functional.
Assay [23] deals with Neisseria gonorrhoeae. The assay can be described thus: Antimicrobial activity against Neisseria gonorrhoeae ATCC 49226 assessed as growth inhibition at 64 ug/mL by NCCLS broth microdilution assay. In kind it is functional, organism-based.
Assay [24] relates to Streptococcus pneumoniae. The assay can be described thus: Antimicrobial activity against Streptococcus pneumoniae ATCC 6303 assessed as growth inhibition at 64 ug/mL by NCCLS broth microdilution assay. Format: functional, organism-based.
Assay [25] relates to Staphylococcus aureus. Briefly: Antimicrobial activity against Staphylococcus aureus ATCC 29213 assessed as growth inhibition at 64 ug/mL by NCCLS broth microdilution assay. In kind it is functional, organism-based.
In assay [26] the test system is Enterococcus faecalis. The assay can be described thus: Antimicrobial activity against Enterococcus faecalis ATCC 29212 assessed as growth inhibition at 64 ug/mL by NCCLS broth microdilution assay. In kind it is functional, organism-based.
Assay [27] concerns Micrococcus luteus. The assay can be described thus: Antimicrobial activity against Micrococcus luteus Presque Isle 456 assessed as growth inhibition at 64 ug/mL by NCCLS broth microdilution assay. Format: functional, organism-based.

In brackets after ≈: the same amount, converted by molar mass. Activity calls are given as the source filed them. The calls are words filed in the database; no cut-off is given here.

As usually defined, the GI50 is the concentration that inhibits growth by half. The term MIC denotes the lowest concentration found to suppress growth. In the case of `CNc1ncnc(N)c1N(C=O)C/C=C(\C)CC/C=C(\C)CC[C@@]1(C)C(C)=CCC[C@@H]1C`, the “growth inhibition (GI)” value in assay [1], in assay [5], in [9], in assay [10] and in assay [16] was “inactive” in each case. Also, the GI50 was found to be 5.9 µM in [2]; 3.9 µM in [6]; 6.8 µM in assay [8]; 7.1 µM in assay [12]; 5.9 µM in assay [13]; 6.8 µM in assay [15]. Further, the MIC in assay [3] amounted to 32 µg/mL (≈ 72.8 µM); in assay [4], 8 µg/mL (≈ 18.2 µM); in [11], 8 µg/mL (≈ 18.2 µM); in assay [14], 4 µg/mL (≈ 9.1 µM); in assay [17], 16 µg/mL (≈ 36.4 µM). In addition, the EC50 in assay [7] worked out at 15.7 µM.

For the molecule `CNc1ncnc(NC(C)C)c1N(C=O)C/C=C(\C)CC/C=C(\C)CC[C@@]1(C)C(C)=CCC[C@@H]1C` [AXISTATIN 3], the “growth inhibition (GI)” value in assay [1], in assay [5], in assay [9] and in [16] was “inactive” each time. The 50% growth inhibitory concentration (GI50) in assay [2] was 6 µM; in [6] it was 3.5 µM; in [8] it was 7.5 µM; in assay [12] it was 6.9 µM; in assay [13], 5.8 µM; in assay [15] it was 5.4 µM. For the same molecule, the MIC in assay [3] amounted to 32 µg/mL (≈ 66.4 µM); in assay [4] it was 4 µg/mL (≈ 8.3 µM); in assay [18], 8 µg/mL (≈ 16.6 µM); in [11], 8 µg/mL (≈ 16.6 µM); in [14] it was 8 µg/mL (≈ 16.6 µM); in assay [17], 8 µg/mL (≈ 16.6 µM). Further, in [7], the EC50 was found to be 8.9 µM.

With `CNc1ncnc(N)c1N(C=O)C/C=C(\C)CC[C@@]1(C)[C@H](C)CC[C@@]2(C)C(C)=CCC[C@H]12` [AXISTATIN 2], the “growth inhibition (GI)” value in [1], in [5], in assay [9] and in [16] was “inactive” each time. Also, the concentration for 50% growth inhibition (GI50) worked out at 5.5 µM in [2]; 3.9 µM in assay [6]; 5 µM in [8]; 4.1 µM in [12]; 6.8 µM in assay [13]; 4.3 µM in assay [15]. The minimal inhibitory concentration (MIC) in assay [3] is 8 µg/mL (≈ 18.2 µM); in assay [4] it was 1 µg/mL (≈ 2.27 µM); in assay [18], 2 µg/mL (≈ 4.55 µM); in [11], 1 µg/mL (≈ 2.27 µM); in assay [14] it was 1 µg/mL (≈ 2.27 µM); in [17], 2 µg/mL (≈ 4.55 µM). Moreover, the EC50 in [7] was greater than 22.8 µM.

Take `CC1=CCC[C@H](C)[C@@]1(C)CC/C(C)=C/CC/C(C)=C/Cn1c[n+](C)c2ncnc(N)c21.[Cl-]` [AGELINE A]: the concentration for 50% growth inhibition (GI50) in assay [2] turned out to be 3.5 µM; in [6], 3.5 µM; in assay [8] it was 4.2 µM; in [12] it was 3.5 µM; in assay [13], 3.9 µM; in [15], 3.7 µM. The minimum inhibitory concentration (MIC) worked out at 16 µg/mL in [3]; 2 µg/mL in [4]; 32 µg/mL in assay [19]; 16 µg/mL in assay [20]; 4 µg/mL in assay [21]; 2 µg/mL in assay [18]. Besides, the minimum inhibitory concentration (MIC) in assay [11] was 2 µg/mL; in [22], 32 µg/mL; in assay [14] it was less than 0.5 µg/mL; in assay [17] it was 2 µg/mL. Besides, the EC50 in assay [7] was greater than 21.8 µM.

Consider `CNc1ncnc(N)c1N(C=O)C/C=C(\C)CC[C@]1(C)[C@@H](C)CC[C@@]2(C)C(COC(=O)c3ccc[nH]3)=CCC[C@@H]12`, for which the “growth inhibition (GI)” value in assay [1], in [5], in [9], in assay [23], in assay [24] and in [10] was “inactive” throughout. Also, the “growth inhibition (GI)” value in assay [25], in assay [26], in assay [16] and in [27] was “inactive” each time. The GI50 in [2] was 4 µM; in assay [6], 3.1 µM; in assay [8] it was 4.6 µM; in [12], 2.9 µM; in assay [13], 3.1 µM; in assay [15], 3.6 µM. Further, the EC50 in [7] was greater than 18.2 µM.

Take `CNc1ncnc(N)c1N(C=O)C/C=C(\C)CC[C@]1(C)[C@@H](C)CC[C@@]2(C)C(C)=CCC[C@@H]12` [AXISTATIN 1]: the “growth inhibition (GI)” value in assay [1], in assay [5], in assay [9] and in assay [16] was “inactive” each time. In addition, the GI50 in [2] came out at 4.8 µM; in assay [6], 3.6 µM; in assay [8], 4.8 µM; in assay [12], 4.1 µM; in assay [13], 5.7 µM; in [15] it was 4.6 µM. Also, the minimum inhibitory concentration (MIC) in assay [3] is 8 µg/mL (≈ 18.2 µM); in assay [4], 1 µg/mL (≈ 2.27 µM); in [18], 1 µg/mL (≈ 2.27 µM); in assay [11], 1 µg/mL (≈ 2.27 µM); in assay [14], 1 µg/mL (≈ 2.27 µM); in assay [17], 1 µg/mL (≈ 2.27 µM). For the same molecule, the EC50 in assay [7] came out at 19.8 µM.

The record behind these values is ChEMBL document CHEMBL2331138, “Isolation and structures of axistatins 1-3 from the Republic of Palau marine sponge Agelas axifera Hentschel ” (2013).
